Legend:
Parameters in all cases: MTT antiproliferation assay, absorbance at 570 nm, human cancer cell line panel
Conditions in all cases: 3-day MTT; inhibitor; read-out: Table S1. IC50 of CCT271850 determined by MTT and clonogenic assays (CA). / All cell lines were tested at least 2 times. / 3-day MTT
005A = tested on: 005A
Protocol: (§1) Cell lines were obtained from the American Type Culture Collection and grown in their recommended culture medium, supplemented with 10% FBS at 37 °C in 5% CO2. In-house authentication of cell lines by SNP profiling was carried out and cultured cells were passaged for less than 6 months before replacement from early-passage frozen stocks. Cells were regularly screened for Mycoplasma, using a PCR-based assay (VenorGem; Minerva Biolabs, Berlin, Germany). Transfections were carried out at ∼80% confluency with the plasmids indicated, using Lipofectamine LTX (15338030, Life Technologies, Carlsbad, CA, USA) according to the manufacturer's instructions. Cell proliferation assays were carried out by colorimetric MTT method (Sigma, St Louis, MO, USA) as described elsewhere ([Mosmann, 1983]). Briefly, cells were plated in 96-well plates at 2000–5000 cells per well (depending on the cell line) followed by treatment with two-fold dilutions of 0–25 μM drug for 72 h. Absorbance was measured at 570 nm with the Wallac VICTOR2 1420 Multilabel Counter (PerkinElmer, Waltham, MA, USA). To evaluate CCT271850 antiproliferation effects in a large panel of human cancer cell lines, 91 cell lines were treated for 72 h and 14 days at different compound concentrations in growth inhibition assays. The growth inhibition values as measured by IC50 are summarised in Table 2 and Supplementary Table S1. […] Cell lines from colon and head and neck cancers were among the most sensitive.

005B = tested on: 005B
Protocol: as §1

011A = tested on: 011A
Protocol: as §1

011B = tested on: 011B
Protocol: as §1

015B = tested on: 015B
Protocol: as §1

A2780 = tested on: A2780
Protocol: as §1

BxPC-3 = tested on: BxPC-3
Protocol: as §1

CFPAC-1 = tested on: CFPAC-1
Protocol: as §1

CaoV3 = tested on: CaoV3
Protocol: as §1

Capan-1 = tested on: Capan-1
Protocol: as §1

Capan-2 = tested on: Capan-2
Protocol: as §1

EF021 = tested on: EF021
Protocol: as §1

HN15 = tested on: HN15
Protocol: as §1

HN3 = tested on: HN3
Protocol: as §1

HN6 = tested on: HN6
Protocol: as §1

Hs766T = tested on: Hs766T
Protocol: as §1

KGN = tested on: KGN
Protocol: as §1

OAW28 = tested on: OAW28
Protocol: as §1

OVCAR5 = tested on: OVCAR5
Protocol: as §1

OVCAR8 = tested on: OVCAR8
Protocol: as §1

PANC-1 = tested on: PANC-1
Protocol: as §1

PATU-8988T = tested on: PATU-8988T
Protocol: as §1

PJ34 = tested on: PJ34
Protocol: as §1

PT45 = tested on: PT45
Protocol: as §1

SMOV2 = tested on: SMOV2
Protocol: as §1

SW626 = tested on: SW626
Protocol: as §1

TOV21G = tested on: TOV21G
Protocol: as §1

IC50 (A2780): 137 nM
IC50 (BxPC-3): 525 nM
IC50 (OVCAR5): 730 nM
IC50 (OVCAR8): 1230 nM
IC50 (PANC-1): 1380 nM
IC50 (SW626): 4210 nM
Compound: COc1cc(-c2cnn(C)c2)ccc1Nc1ncc2ccnc(N[C@@H](C)C(C)(C)C)c2n1 [34h, CCT271850]
IC50 (005A): 940 nM
IC50 (005B): 440 nM
IC50 (011A): 1620 nM
IC50 (011B): 2220 nM
IC50 (015B): 350 nM
IC50 (CFPAC-1): 910 nM
IC50 (CaoV3): 360 nM
IC50 (Capan-1): 2050 nM
IC50 (Capan-2): 1550 nM
IC50 (EF021): 751 nM
IC50 (HN15): 1740 nM
IC50 (HN3): 845 nM
IC50 (HN6): 330 nM
IC50 (Hs766T): 1900 nM
IC50 (KGN): 3120 nM
IC50 (OAW28): 1020 nM
IC50 (PATU-8988T): 665 nM
IC50 (PJ34): 1120 nM
IC50 (PT45): 960 nM
IC50 (SMOV2): 795 nM
IC50 (TOV21G): 753 nM

From publication PMC5418449, “Characterisation of CCT271850, a selective, oral and potent MPS1 inhibitor, used to directly measure in vivo MPS1 inhibition vs therapeutic efficacy” (British Journal of Cancer, 2017)
